Test results as given in ChEMBL document CHEMBL4321825, “Discovery of a Series of 5-Azaquinazolines as Orally Efficacious IRAK4 Inhibitors Targeting MyD88L265P Mutant Diffuse Large B Cell Lymphoma” (J Med Chem, 2019).
≈ marks a conversion by molar mass, not a printed value. Calls of active or inactive are those of the source. No cut-off for these calls is given here.

Key:
[1] = target: T1, Interleukin-1 receptor-associated kinase 4 (Homo sapiens, UniProt Q9NWZ3); assay: Inhibition of IRAK4 (unknown origin) in presence of 5 mM ATP by enzymatic assay
T1 sequence (Q9NWZ3 whole entry): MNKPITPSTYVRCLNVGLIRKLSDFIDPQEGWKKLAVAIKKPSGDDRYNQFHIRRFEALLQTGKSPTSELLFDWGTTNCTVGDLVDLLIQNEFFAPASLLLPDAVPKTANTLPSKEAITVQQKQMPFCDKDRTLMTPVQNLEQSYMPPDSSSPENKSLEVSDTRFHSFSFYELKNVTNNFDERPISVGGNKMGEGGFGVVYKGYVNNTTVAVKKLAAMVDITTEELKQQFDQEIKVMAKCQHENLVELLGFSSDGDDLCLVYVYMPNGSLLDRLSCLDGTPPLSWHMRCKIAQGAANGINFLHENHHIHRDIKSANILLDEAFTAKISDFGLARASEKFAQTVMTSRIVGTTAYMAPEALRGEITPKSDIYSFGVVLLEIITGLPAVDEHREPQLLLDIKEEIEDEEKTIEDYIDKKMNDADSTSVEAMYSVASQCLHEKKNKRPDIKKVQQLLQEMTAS

[2] = target: T1, Interleukin-1 receptor-associated kinase 4; assay: Inhibition of IRAK4 (unknown origin) by cell based assay
[3] = Lipophilicity, logD of the compound at pH 7.4 by shake-flask assay; format: physicochemical; conditions: buffer
[4] = Intrinsic clearance in human hepatocytes assessed per million cells; format: ADME, cell-based, Hepatocyte; conditions: read-out: CLH
[5] = Intrinsic clearance in rat hepatocytes assessed per million cells; format: ADME, cell-based, Hepatocyte; conditions: read-out: CLH
[6] = Intrinsic permeability in human Caco2 cells; format: ADME, cell-based; conditions: Caco-2
[7] = Efflux ratio in human Caco2 cells; format: ADME, cell-based; conditions: Caco-2
[8] = Clearance in rat at 0.5 mg/kg, iv; format: ADME, organism-based; conditions: in vivo
[9] = Oral bioavailability in rat at 1 mg/kg; format: ADME, organism-based; conditions: in vivo
[10] = test system: OCI-Ly10; assay: Growth inhibition of human OCI-LY10 cells at 0.3 nM incubated for 3 days by Alamar blue dye based fluorescence assay (reference value: 3%); format: functional; conditions: OCI-Ly10, 72 h, read-out: GI
[11] = test system: OCI-Ly10; assay: Growth inhibition of human OCI-LY10 cells at 2.1 nM incubated for 3 days by Alamar blue dye based fluorescence assay (reference value: 3%); format: functional; conditions: OCI-Ly10, 72 h, read-out: GI
[12] = test system: OCI-Ly10; assay: Growth inhibition of human OCI-LY10 cells at 4.2 nM incubated for 3 days by Alamar blue dye based fluorescence assay (reference value: 3%); format: functional; conditions: OCI-Ly10, 72 h, read-out: GI
[13] = test system: OCI-Ly10; assay: Growth inhibition of human OCI-LY10 cells at 10 nM incubated for 3 days by Alamar blue dye based fluorescence assay (reference value: 3%); format: functional; conditions: OCI-Ly10, 72 h, read-out: GI
[14] = test system: OCI-Ly10; assay: Growth inhibition of human OCI-LY10 cells at 42 nM incubated for 3 days by Alamar blue dye based fluorescence assay (reference value: 3%); format: functional; conditions: OCI-Ly10, 72 h, read-out: GI
[15] = test system: OCI-LY19; assay: Growth inhibition of human OCI-LY19 cells at 0.3 nM incubated for 3 days by Alamar blue dye based fluorescence assay (reference value: 3%); format: functional; conditions: OCI-LY19, 72 h, read-out: GI
[16] = test system: OCI-LY19; assay: Growth inhibition of human OCI-LY19 cells at 2.1 nM incubated for 3 days by Alamar blue dye based fluorescence assay (reference value: 3%); format: functional; conditions: OCI-LY19, 72 h, read-out: GI
[17] = test system: OCI-LY19; assay: Growth inhibition of human OCI-LY19 cells at 4.2 nM incubated for 3 days by Alamar blue dye based fluorescence assay (reference value: 3%); format: functional; conditions: OCI-LY19, 72 h, read-out: GI
[18] = test system: OCI-LY19; assay: Growth inhibition of human OCI-LY19 cells at 10 nM incubated for 3 days by Alamar blue dye based fluorescence assay (reference value: 3%); format: functional; conditions: OCI-LY19, 72 h, read-out: GI
[19] = test system: OCI-LY19; assay: Growth inhibition of human OCI-LY19 cells at 42 nM incubated for 3 days by Alamar blue dye based fluorescence assay (reference value: 3%); format: functional; conditions: OCI-LY19, 72 h, read-out: GI
[20] = test system: OCI-Ly10; assay: Antitumor activity against human OCI-LY10 cells xenografted in CB.17 SCID mouse assessed as induction of tumor stasis at 12 mg/kg, po QD dosed 34 days after tumor cell inoculation; format: functional, organism-based
[21] = target: T2, Cyclin-dependent kinase 9 (Homo sapiens, UniProt P50750); assay: Inhibition of CDK9 (unknown origin) at 1 uM relative to control
[22] = target: T3, Serine/threonine-protein kinase ULK2 (Homo sapiens) (UniProt Q8IYT8); assay: Inhibition of ULK2 (unknown origin) at 1 uM relative to control
T3 sequence (whole entry): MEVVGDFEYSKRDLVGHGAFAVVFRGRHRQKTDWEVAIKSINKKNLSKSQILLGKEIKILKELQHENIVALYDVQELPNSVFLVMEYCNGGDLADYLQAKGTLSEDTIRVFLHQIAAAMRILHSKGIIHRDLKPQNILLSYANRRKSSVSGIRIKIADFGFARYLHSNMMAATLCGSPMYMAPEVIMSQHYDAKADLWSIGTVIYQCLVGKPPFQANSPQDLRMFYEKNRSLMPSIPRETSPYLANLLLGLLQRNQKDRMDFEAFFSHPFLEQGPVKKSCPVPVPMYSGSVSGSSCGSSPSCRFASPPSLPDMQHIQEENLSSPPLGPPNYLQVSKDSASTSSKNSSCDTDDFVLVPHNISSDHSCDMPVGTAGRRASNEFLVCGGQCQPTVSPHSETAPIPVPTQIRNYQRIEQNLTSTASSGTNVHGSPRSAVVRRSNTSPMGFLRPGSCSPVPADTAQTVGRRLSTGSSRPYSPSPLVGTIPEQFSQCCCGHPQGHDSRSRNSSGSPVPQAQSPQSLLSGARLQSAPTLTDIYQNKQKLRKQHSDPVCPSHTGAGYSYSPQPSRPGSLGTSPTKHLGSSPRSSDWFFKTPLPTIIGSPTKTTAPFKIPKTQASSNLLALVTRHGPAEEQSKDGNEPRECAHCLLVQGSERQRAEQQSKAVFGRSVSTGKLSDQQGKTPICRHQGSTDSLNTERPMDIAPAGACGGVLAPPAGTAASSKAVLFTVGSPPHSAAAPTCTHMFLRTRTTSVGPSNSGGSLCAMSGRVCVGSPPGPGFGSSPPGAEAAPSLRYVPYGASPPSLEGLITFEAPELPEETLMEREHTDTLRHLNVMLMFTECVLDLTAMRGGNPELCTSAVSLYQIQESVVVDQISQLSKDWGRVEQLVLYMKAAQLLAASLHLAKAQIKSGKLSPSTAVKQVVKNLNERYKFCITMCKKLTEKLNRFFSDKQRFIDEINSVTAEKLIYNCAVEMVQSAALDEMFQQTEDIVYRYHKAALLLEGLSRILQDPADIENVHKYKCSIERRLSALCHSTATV

[23] = target: Casein kinase I isoform gamma-1 (Homo sapiens) (UniProt Q9HCP0); assay: Inhibition of CK1g1 (unknown origin) at 1 uM relative to control
[24] = target: Mitogen-activated protein kinase kinase kinase 9 (Homo sapiens) (UniProt P80192); assay: Inhibition of MLK1 (unknown origin) at 1 uM relative to control
[25] = target: Interleukin-1 receptor-associated kinase 1 (Homo sapiens, UniProt P51617); assay: Inhibition of IRAK1 (unknown origin)
[26] = target: Dual specificity protein kinase CLK1 (Homo sapiens, UniProt P49759); assay: Inhibition of human recombinant CLK1 expressed in Escherichia coli
[27] = target: Dual specificity protein kinase CLK2 (Homo sapiens, UniProt P49760); assay: Inhibition of human recombinant CLK2 expressed in Baculovirus system
[28] = target: Dual specificity protein kinase CLK3 (Homo sapiens, UniProt P49761); assay: Inhibition of human recombinant CLK3 expressed in Baculovirus system
[29] = target: Dual specificity protein kinase CLK4 (Homo sapiens, UniProt Q9HAZ1); assay: Inhibition of human recombinant CLK4 expressed in Baculovirus system
[30] = target: Cyclin-dependent kinase 7 (Homo sapiens, UniProt P50613); assay: Inhibition of CDK7 (unknown origin)
[31] = target: CDK8/Cyclin C (Homo sapiens, UniProt P49336); assay: Inhibition of human recombinant CDK8/cyclinC expressed in Baculovirus system
[32] = target: T2, Cyclin-dependent kinase 9; assay: Inhibition of CDK9 (unknown origin)
[33] = Unbound fraction in rat plasma at 37 degC by equilibrium dialysis; format: ADME, cell-free
[34] = Unbound fraction in mouse plasma at 37 degC by equilibrium dialysis; format: ADME, cell-free
[35] = Unbound fraction in human plasma at 37 degC by equilibrium dialysis; format: ADME, cell-free
[36] = Plasma clearance in Han Wistar rat at 1 mg/kg, iv; format: ADME, organism-based
[37] = Volume of distribution at steady state in Han Wistar rat at 1 mg/kg, iv; format: ADME, organism-based; conditions: in vivo, read-out: Vdss
[38] = Oral bioavailability in Han Wistar rat at 2 mg/kg; format: ADME, organism-based; conditions: in vivo
[39] = AUC in SCID mouse at 50 mg/kg, po; format: ADME, organism-based; conditions: in vivo
[40] = Aqueous solubility in pH 7.4 phosphate buffer; format: physicochemical
[41] = test system: OCI-Ly10; assay: Antitumor activity against human OCI-LY10 cells xenografted in CB.17 SCID mouse assessed as inhibition of tumor growth at 50 mg/kg, po QD dosed 34 days after tumor cell inoculation; format: functional, organism-based
[42] = test system: OCI-Ly10; assay: Antitumor activity against human OCI-LY10 cells xenografted in CB.17 SCID mouse assessed as induction of tumor regression at 50 mg/kg, po QD dosed 34 days after tumor cell inoculation and co-treated with 12 mg/kg, po QD ibrutinib; format: functional, organism-based

T2 sequence (P50750 whole entry): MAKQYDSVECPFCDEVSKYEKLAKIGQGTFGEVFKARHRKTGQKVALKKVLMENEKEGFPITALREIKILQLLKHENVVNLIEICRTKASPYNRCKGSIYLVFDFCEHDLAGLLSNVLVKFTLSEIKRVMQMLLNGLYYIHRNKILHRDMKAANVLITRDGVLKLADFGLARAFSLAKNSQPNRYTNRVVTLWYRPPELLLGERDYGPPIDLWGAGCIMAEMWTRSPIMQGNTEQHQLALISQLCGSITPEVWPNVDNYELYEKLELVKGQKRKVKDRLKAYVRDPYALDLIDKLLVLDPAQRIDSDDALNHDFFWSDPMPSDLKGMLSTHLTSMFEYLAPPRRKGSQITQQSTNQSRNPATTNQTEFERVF
Chain of CDK8/Cyclin C (P49336 whole entry): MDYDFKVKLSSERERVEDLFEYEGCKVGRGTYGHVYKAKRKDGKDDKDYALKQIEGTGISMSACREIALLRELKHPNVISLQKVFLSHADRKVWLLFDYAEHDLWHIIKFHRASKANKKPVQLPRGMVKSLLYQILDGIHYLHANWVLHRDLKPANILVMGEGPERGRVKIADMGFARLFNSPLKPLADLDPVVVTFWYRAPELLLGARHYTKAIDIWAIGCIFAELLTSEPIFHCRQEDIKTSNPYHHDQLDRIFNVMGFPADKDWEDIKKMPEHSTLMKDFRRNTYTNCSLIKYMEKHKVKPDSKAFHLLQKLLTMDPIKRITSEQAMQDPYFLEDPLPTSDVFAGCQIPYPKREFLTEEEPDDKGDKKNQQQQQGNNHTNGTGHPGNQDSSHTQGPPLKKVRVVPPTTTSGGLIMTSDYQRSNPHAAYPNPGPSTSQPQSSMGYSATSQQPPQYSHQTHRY
Chain of CDK8/Cyclin C (P24863 whole entry, further chain): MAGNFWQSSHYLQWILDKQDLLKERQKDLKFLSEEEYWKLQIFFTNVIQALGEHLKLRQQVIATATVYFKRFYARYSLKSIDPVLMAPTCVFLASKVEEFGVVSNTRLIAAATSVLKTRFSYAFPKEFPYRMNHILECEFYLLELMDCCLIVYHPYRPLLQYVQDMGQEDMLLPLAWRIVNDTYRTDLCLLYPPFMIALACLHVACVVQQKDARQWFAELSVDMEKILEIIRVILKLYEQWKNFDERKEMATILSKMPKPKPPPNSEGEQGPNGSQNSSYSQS
Chain of Dual specificity protein kinase CLK3 (P49761 whole entry): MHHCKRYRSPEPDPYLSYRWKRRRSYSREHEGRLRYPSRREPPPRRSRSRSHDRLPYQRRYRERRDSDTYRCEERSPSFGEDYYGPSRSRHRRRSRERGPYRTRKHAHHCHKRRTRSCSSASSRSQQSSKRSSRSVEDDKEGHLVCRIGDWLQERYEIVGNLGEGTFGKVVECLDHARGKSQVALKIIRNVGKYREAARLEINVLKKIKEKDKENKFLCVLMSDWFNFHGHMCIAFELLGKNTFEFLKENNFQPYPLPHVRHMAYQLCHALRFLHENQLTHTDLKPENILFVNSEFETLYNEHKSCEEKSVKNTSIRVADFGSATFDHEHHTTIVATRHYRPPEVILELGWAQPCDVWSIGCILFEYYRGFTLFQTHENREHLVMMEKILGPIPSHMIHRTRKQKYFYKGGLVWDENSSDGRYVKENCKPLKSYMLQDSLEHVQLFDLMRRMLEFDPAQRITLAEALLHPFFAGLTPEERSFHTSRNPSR
Chain of Interleukin-1 receptor-associated kinase 1 (P51617 whole entry): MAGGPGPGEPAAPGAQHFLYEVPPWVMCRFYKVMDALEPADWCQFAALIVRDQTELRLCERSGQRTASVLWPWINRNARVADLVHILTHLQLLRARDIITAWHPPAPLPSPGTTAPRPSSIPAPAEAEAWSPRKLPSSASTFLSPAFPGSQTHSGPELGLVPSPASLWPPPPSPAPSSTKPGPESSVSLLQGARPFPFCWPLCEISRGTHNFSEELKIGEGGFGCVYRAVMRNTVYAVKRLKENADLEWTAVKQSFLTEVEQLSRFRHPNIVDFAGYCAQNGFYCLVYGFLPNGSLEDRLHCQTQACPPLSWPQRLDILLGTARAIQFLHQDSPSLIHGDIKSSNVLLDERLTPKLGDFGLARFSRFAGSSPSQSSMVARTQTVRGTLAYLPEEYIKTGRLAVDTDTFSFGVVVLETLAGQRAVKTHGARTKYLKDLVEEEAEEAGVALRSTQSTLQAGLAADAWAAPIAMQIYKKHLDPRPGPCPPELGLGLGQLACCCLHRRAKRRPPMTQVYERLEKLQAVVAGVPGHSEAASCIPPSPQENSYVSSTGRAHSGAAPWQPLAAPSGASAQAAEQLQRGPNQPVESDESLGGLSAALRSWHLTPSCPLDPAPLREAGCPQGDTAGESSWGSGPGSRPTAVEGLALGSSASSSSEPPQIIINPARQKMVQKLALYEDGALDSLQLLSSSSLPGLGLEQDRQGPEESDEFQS
Chain of Dual specificity protein kinase CLK4 (Q9HAZ1 whole entry): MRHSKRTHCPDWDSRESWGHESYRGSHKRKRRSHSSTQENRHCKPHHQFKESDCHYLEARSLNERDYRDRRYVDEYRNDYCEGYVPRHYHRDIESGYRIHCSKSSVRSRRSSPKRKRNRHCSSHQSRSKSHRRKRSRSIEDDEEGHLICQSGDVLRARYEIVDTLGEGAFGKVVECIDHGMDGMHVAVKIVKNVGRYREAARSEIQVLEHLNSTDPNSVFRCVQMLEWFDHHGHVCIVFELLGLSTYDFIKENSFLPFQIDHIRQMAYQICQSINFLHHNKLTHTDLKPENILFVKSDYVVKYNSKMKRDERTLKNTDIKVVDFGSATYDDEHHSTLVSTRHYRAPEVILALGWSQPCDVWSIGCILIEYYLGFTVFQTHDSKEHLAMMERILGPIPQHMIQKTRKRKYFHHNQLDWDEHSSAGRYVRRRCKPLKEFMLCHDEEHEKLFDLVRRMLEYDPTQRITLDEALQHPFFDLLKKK
Chain of Cyclin-dependent kinase 7 (P50613 whole entry): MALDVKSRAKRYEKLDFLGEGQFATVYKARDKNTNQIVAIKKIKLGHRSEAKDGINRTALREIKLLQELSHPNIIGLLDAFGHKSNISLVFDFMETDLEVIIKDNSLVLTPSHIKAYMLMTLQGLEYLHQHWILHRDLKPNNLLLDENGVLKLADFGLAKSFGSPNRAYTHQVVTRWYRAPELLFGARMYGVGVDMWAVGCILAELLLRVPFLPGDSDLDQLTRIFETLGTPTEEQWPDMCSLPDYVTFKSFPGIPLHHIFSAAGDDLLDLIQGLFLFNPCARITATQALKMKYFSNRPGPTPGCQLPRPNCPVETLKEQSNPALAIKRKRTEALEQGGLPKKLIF
Chain of Dual specificity protein kinase CLK2 (P49760 whole entry): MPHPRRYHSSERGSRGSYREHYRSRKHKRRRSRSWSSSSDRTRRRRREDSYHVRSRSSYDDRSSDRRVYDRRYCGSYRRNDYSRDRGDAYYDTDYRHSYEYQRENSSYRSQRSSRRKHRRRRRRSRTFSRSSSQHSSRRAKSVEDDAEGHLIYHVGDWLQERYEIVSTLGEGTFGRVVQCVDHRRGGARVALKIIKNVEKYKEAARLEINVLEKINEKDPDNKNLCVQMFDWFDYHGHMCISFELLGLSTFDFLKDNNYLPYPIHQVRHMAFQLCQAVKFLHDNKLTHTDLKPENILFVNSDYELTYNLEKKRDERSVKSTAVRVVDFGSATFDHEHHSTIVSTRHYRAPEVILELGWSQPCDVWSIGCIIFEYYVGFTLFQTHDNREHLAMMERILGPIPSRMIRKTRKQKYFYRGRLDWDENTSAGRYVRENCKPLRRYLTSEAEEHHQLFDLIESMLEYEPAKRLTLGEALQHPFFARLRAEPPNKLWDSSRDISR
Chain of Casein kinase I isoform gamma-1 (Homo sapiens) (Q9HCP0 whole entry, looked up, canonical isoform): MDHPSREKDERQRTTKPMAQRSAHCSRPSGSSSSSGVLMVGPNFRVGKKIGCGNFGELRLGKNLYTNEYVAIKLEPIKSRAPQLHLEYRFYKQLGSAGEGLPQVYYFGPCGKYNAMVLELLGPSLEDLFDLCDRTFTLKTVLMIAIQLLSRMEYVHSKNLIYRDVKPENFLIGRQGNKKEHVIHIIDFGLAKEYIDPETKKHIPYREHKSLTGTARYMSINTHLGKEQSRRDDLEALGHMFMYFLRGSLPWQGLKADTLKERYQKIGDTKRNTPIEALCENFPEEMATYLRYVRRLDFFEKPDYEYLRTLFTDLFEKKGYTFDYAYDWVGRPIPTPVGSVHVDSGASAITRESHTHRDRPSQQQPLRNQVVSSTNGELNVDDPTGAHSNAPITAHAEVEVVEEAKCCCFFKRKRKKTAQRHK
Chain of Dual specificity protein kinase CLK1 (P49759 whole entry): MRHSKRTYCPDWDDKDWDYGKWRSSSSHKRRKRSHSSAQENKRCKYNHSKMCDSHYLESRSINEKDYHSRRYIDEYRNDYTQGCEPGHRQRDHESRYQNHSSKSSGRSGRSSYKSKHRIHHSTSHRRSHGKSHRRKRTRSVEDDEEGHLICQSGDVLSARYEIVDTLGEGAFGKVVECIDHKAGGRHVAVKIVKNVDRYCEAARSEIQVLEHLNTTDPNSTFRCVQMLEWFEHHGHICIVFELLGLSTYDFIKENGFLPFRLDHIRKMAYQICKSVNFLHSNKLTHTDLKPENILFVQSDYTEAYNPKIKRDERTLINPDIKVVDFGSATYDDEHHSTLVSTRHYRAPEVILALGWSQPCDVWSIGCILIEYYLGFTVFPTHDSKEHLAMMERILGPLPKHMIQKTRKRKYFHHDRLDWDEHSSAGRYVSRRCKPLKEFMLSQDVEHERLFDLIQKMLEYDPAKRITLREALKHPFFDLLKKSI

N#Cc1ccc2ncnc(N[C@H]3CC[C@H](N4CCOCC4)CC3)c2c1
IC50 [1]: 46 nM
IC50 [2]: 250 nM
logD [3]: 1.6
hepatocyte CLint [4]: < 1.2 µL/min/1e6 cells
hepatocyte CLint [5]: 3.4 µL/min/1e6 cells
Papp [6]: 18 ×10⁻⁶ cm/s
efflux ratio [7]: 1.6
clearance [8]: 20 mL/min/kg
bioavailability [9]: 29%

C=CC(=O)N1CCC[C@@H](n2nc(-c3ccc(Oc4ccccc4)cc3)c3c(N)ncnc32)C1 [IBRUTINIB]
inhibition of growth at 0.0003 µM [10]: 5%
inhibition of growth at 0.0021 µM [11]: 36%
inhibition of growth at 0.0042 µM [12]: 60%
inhibition of growth at 0.01 µM [13]: 83%
inhibition of growth at 0.042 µM [14]: 93%
inhibition of growth at 0.0003 µM [15]: 3%
inhibition of growth at 0.0021 µM [16]: 7%
inhibition of growth at 0.0042 µM [17]: 6%
inhibition of growth at 0.01 µM [18]: 7%
inhibition of growth at 0.042 µM [19]: 11%
Activity [20]: Active

COC(=O)N1CCN([C@H]2CC[C@H](Nc3nc(Nc4cnn(C)c4)nc4ccc(C(C)(C)C#N)nc34)CC2)CC1
IC50 [1]: 69 nM
IC50 [2]: 1600 nM
logD [3]: 3
hepatocyte CLint [5]: 18 µL/min/1e6 cells

COC(=O)N1CCN([C@H]2CC[C@H](Nc3ncnc4ccc(C#N)cc34)CC2)CC1
logD [3]: 2.2
hepatocyte CLint [4]: < 1 µL/min/1e6 cells
hepatocyte CLint [5]: < 1.6 µL/min/1e6 cells
Papp [6]: 20 ×10⁻⁶ cm/s
clearance [8]: 7.4 mL/min/kg
bioavailability [9]: > 100%
inhibition [21]: 84%
inhibition [22]: 58%
inhibition [23]: 53%
inhibition [24]: 51%
IC50 [25]: 44 nM
IC50 [26]: 1700 nM
IC50 [27]: 360 nM
IC50 [28]: > 10000 nM
IC50 [29]: 610 nM
IC50 [30]: 3100 nM
IC50 [31]: 68 nM
IC50 [32]: 370 nM
fraction unbound [33]: 0.05
fraction unbound [34]: 0.28
fraction unbound [35]: 0.23
clearance [36]: 7.4 mL/min/kg
Vd [37]: 1.3 L/kg
bioavailability [38]: > 100%
AUC [39]: 390 µM·h
solubility [40]: 130 µM (≈ 51.3 µg/mL)
TGI [41]: Active
Activity [42]: Active

CC(=O)N1CCN([C@H]2CC[C@H](Nc3nc(Nc4cnn(C)c4)nc4ccc(C#N)cc34)CC2)CC1
IC50 [1]: 1 nM
IC50 [2]: 400 nM
logD [3]: 2.3
hepatocyte CLint [4]: < 1 µL/min/1e6 cells
hepatocyte CLint [5]: 3.2 µL/min/1e6 cells
Papp [6]: < 0.2 ×10⁻⁶ cm/s
efflux ratio [7]: 323
clearance [8]: 17 mL/min/kg

COC(=O)N1CCN([C@H]2CC[C@H](Nc3nc(Nc4cnn(C)c4)nc4ccc(C5(C#N)CC5)nc34)CC2)CC1
IC50 [1]: 17 nM
IC50 [2]: 61 nM
logD [3]: 3.2
hepatocyte CLint [4]: 4 µL/min/1e6 cells
hepatocyte CLint [5]: 7.3 µL/min/1e6 cells

COC(=O)N1CCN([C@H]2CC[C@H](Nc3nc(Nc4cnn(C)c4)nc4ccc(C#N)cc34)CC2)CC1
IC50 [1]: 1 nM
IC50 [2]: 34 nM
logD [3]: 3.2
hepatocyte CLint [4]: < 1 µL/min/1e6 cells
hepatocyte CLint [5]: 5.4 µL/min/1e6 cells
Papp [6]: 3 ×10⁻⁶ cm/s
efflux ratio [7]: 46
clearance [8]: 11 mL/min/kg
bioavailability [9]: 10%
